Series [1] concerns the target T1, Inward rectifier potassium channel 13 (Homo sapiens) (UniProt O60928).
T1 sequence (whole entry): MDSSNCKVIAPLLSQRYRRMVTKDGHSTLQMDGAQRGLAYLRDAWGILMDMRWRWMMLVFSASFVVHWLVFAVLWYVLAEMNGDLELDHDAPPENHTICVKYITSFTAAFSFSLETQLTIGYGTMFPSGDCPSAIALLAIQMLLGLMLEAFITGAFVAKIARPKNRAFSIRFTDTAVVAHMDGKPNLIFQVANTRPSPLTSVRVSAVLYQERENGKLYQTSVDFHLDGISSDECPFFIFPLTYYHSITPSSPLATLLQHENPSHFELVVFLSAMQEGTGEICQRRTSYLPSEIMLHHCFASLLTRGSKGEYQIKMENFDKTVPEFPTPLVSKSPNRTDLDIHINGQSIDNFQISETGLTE
The experiment in a line: Inhibition human Kir7.1 expressed in HEK293 cells at 10 uM by whole cell patch clamp assay relative to control. It is filed as cell-based. On the technique in general: Patch clamp records ionic current or voltage across a cell membrane.

Series [2] addresses T2, ATP-sensitive inward rectifier potassium channel 1 (Rattus norvegicus, UniProt P35560).
T2 sequence (P35560 whole entry): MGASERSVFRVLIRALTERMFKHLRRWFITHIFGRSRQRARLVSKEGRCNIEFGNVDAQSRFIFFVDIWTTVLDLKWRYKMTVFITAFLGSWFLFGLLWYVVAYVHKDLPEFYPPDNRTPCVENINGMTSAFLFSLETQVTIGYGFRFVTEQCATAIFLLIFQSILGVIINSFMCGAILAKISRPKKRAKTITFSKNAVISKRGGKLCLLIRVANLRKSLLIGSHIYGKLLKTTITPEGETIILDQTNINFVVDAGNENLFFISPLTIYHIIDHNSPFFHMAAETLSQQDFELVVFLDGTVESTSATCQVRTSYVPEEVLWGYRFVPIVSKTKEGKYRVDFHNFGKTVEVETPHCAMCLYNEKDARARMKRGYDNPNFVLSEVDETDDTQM
The experiment in a line: Inhibition of rat ROMK1 expressed in HEK293 cells by Tl+ flux assay. The class given is cell-based.

For series [3], the target named is T3, ATP-sensitive inward rectifier potassium channel 1 (Homo sapiens, UniProt P48048).
T3 sequence (P48048 whole entry): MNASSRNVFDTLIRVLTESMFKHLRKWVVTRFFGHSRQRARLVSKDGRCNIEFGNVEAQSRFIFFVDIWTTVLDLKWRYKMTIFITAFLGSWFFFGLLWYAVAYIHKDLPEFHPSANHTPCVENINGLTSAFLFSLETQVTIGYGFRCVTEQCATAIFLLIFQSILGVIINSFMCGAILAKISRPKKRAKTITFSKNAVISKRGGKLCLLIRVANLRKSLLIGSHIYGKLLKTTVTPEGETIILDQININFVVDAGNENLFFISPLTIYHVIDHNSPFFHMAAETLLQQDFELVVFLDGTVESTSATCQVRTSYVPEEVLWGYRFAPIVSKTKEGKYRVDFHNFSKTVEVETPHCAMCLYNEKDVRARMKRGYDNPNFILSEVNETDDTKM
The experiment in a line: Inhibition of human ROMK1 expressed in HEK293 cells by Tl+ flux assay. The class given is cell-based.

In series [4] the target is Voltage-gated inwardly rectifying potassium channel KCNH2 (Homo sapiens, UniProt Q12809). Nature of the series: Inhibition of human ERG.
In series [5] the target is T3, ATP-sensitive inward rectifier potassium channel 1. Nature of the series: Inhibition of human ROMK1 expressed in CHO cells by Tl+ flux assay. It is filed as cell-based.
The nature of series [6]: Protein binding in rat plasma. Conditions: read-out: PPB (converted). It is filed as ADME, cell-free.
The species entered for series [7] is Homo sapiens. The experiment in a line: Inhibition of GABA receptor (unknown origin) at 10 uM by radioligand displacement assay relative to control.
Series [8] relates to HEK293. The experiment in a line: Inhibition of hamster SUR1/mouse Kir6.2 expressed in HEK293 cells at 50 uM by patch clamp electrophysiology assay relative to control. It is filed as cell-based.
Series [9] in a line: Stability in human liver microsomes assessed as parent compound remaining level. The class given is ADME, Microsome.
A short description of series [10]: Stability in rat liver microsomes assessed as parent compound remaining level. It is filed as ADME, Microsome. On the technique in general: Liver microsomes are vesicles of endoplasmic reticulum, rich in cytochrome P450 enzymes.
Series [11] deals with HEK293. The experiment in a line: Inhibition of hamster SUR1/mouse Kir6.2 expressed in HEK293 cells at 10 uM by patch clamp electrophysiology assay relative to control. It is filed as cell-based.
In series [12] the target is Sodium-dependent noradrenaline transporter (Homo sapiens) (UniProt P23975). Nature of the series: Inhibition of norepinephrine transporter (unknown origin) at 10 uM by radioligand displacement assay relative to control.
Series [13] is described as follows: Protein binding in human plasma. It is filed as ADME, cell-free. To be noted: read-out: PPB (converted).
Series [14] concerns the target T4, D(4) dopamine receptor (Homo sapiens) (UniProt P21917).
T4 sequence (whole entry): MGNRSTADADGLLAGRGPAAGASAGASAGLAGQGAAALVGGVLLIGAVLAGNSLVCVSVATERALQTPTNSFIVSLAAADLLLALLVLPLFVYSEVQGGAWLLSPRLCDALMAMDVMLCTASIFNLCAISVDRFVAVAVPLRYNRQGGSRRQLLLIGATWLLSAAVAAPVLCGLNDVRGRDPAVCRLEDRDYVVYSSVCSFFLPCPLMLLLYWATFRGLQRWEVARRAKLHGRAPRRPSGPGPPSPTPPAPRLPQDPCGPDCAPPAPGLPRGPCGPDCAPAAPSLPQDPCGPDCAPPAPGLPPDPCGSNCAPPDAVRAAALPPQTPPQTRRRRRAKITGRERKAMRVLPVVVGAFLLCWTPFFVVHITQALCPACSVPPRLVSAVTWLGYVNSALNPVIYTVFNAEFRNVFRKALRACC
The experiment in a line: Inhibition of DRD4 (unknown origin) at 10 uM by radioligand displacement assay relative to control.

A short description of series [15]: Inhibition of GABA receptor (unknown origin) by radioligand displacement assay. Details: species or system Homo sapiens. On the technique in general: Displacement assays read how much labelled ligand stays bound in the presence of the test substance.
Series [16] has as its target Sodium-dependent dopamine transporter (Homo sapiens) (UniProt Q01959). Nature of the series: Inhibition of dopamine transporter (unknown origin) at 10 uM by radioligand displacement assay relative to control.

SMILES strings stand for the structures.

Voltage-gated inwardly rectifying potassium channel KCNH2, sequence (Q12809 whole entry): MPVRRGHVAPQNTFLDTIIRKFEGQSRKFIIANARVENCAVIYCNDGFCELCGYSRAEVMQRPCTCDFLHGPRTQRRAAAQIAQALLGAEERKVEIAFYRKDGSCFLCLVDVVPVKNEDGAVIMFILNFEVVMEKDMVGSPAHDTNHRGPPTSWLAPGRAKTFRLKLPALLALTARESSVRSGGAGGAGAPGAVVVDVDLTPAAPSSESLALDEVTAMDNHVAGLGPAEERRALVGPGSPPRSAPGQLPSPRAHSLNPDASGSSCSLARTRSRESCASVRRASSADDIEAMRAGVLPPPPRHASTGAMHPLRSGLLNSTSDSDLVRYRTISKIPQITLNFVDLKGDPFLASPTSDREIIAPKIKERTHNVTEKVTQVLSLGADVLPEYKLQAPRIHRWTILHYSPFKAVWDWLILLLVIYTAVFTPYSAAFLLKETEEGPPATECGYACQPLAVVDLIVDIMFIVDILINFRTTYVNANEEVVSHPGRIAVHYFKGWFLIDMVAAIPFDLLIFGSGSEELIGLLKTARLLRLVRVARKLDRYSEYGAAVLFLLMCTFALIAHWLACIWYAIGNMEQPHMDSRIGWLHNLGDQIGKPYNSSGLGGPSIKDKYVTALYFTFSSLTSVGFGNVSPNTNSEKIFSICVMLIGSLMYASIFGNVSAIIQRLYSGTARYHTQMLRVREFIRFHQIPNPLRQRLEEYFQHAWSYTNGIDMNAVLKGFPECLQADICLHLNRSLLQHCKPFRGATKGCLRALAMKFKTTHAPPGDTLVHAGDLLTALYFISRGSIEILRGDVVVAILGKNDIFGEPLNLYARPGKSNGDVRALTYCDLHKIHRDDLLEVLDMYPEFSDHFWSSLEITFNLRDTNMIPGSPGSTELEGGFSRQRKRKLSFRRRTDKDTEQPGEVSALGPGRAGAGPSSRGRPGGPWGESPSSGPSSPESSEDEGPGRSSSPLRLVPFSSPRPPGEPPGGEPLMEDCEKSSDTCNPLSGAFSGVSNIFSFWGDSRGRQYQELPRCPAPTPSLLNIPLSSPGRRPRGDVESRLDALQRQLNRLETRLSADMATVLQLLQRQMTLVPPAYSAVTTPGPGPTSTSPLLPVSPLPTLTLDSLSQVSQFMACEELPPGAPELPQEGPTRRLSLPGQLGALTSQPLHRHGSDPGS
Sodium-dependent dopamine transporter (Homo sapiens), sequence (Q01959 whole entry): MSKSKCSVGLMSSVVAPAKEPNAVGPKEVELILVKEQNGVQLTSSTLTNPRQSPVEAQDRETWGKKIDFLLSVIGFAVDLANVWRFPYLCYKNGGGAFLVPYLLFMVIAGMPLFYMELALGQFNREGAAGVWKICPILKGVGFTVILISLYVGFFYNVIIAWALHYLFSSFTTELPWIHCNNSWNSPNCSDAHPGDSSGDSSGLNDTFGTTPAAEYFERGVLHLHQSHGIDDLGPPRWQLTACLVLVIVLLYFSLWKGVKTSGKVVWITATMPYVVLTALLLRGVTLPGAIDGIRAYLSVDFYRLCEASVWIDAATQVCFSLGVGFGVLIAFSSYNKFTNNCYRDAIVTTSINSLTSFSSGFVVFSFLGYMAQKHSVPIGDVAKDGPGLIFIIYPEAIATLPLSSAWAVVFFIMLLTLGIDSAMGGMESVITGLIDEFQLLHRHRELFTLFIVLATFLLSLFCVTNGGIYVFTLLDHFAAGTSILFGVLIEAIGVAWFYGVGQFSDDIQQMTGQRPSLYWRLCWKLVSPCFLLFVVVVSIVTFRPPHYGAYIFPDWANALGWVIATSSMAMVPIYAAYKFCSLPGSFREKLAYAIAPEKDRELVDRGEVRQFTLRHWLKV
Sodium-dependent noradrenaline transporter (Homo sapiens), sequence (P23975 whole entry): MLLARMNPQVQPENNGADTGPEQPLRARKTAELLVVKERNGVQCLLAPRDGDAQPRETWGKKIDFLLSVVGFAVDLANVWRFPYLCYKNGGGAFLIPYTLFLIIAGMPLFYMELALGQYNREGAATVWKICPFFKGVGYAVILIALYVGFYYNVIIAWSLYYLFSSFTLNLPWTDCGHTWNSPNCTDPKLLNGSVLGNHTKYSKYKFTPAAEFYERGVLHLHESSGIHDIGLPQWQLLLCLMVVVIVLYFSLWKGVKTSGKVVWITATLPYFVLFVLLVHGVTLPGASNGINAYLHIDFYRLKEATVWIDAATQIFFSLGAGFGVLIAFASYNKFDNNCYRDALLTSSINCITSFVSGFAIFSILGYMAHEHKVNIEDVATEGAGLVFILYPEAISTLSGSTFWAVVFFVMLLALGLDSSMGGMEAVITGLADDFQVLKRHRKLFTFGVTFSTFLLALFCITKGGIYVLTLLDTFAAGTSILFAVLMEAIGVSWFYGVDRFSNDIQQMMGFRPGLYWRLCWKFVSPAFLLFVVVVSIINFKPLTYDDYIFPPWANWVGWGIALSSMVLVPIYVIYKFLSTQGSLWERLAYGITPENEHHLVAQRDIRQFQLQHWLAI

On to `O=[N+]([O-])c1ccc(CN2CCOCCOCCN(Cc3ccc([N+](=O)[O-])cc3)CCOCC2)cc1`, for which the inhibition – broadly, the share of the control response that was lost under treatment – in [1] was determined as 69%. In addition, the IC50 (as a rule, the concentration at which inhibition is half-maximal) in series [2] is 0.294 µM.

The compound `C[C@H]1CC2(CCN(C[C@@H](O)c3ccc4c(ccc5nnnn54)c3)CC2)C(=O)N1C1=CC(=O)OC1` yielded an IC50 in [2] of 0.01 µM.

Take `O=C1OCc2cc(C3CN4CCN(C(=O)Cc5ccc(-n6cnnn6)cc5)CC4CO3)ccc21` (stereo not given): the half-maximal inhibitory concentration (IC50) in [3] lay in the range of 0.065 to 0.105 µM; in series [4], 21.1 to 59.4 µM.

Regarding `CC1=C(N2CCC3(CCN(C[C@@H](O)c4ccc5c(c4Cl)Cn4nnnc4-5)CC3)C2=O)COC1=O`, in series [2], the IC50 is 0.009 µM.

On to `O=C1OCCc2cc([C@@H]3CN4CCN(C(=O)Cc5ccc(-n6cnnn6)cc5)C[C@H]4CO3)ccc21`, for which the IC50 is 0.057 µM in series [3] and 75.9 µM in series [4].

Consider `CC1=C(N2CCC3(CCN(C[C@H](O)c4ccc5c(c4)Cn4nnnc4-5)C[C@H]3F)C2=O)COC1=O` (stereo not given in full), for which the midpoint of inhibition in [2], the IC50, lay at 0.043 µM. That is a double-digit nanomolar value.

In series [5], `Cc1c(C(O)CN2CCc3nc(-n4ncc5c(C#N)cccc54)ncc3C2)ccc2c1COC2=O` (stereo not given) registered an IC50 of 0.038 µM.

Take `O=[N+]([O-])c1ccc2[nH]c(CCCc3nc4cc([N+](=O)[O-])ccc4[nH]3)nc2c1`: the IC50 in [2] was 8 µM.

Turning to `Cc1c(C#N)cccc1[C@@H]1CN2CCN(C(=O)Cc3ccc(-n4cnnn4)cc3)C[C@H]2CO1`, the IC50 in series [3] came to 0.06 µM; in [4] it was 14.8 µM.

Turning to `Cc1cc(-c2ncc(CNC[C@H](O)c3ccc4c(c3C)COC4=O)s2)ccc1C#N`, the IC50 in series [5] amounted to 0.0066 µM.

The compound `Cc1c([C@@H]2CN(Cc3ccc(-n4cc(C#N)cn4)cn3)CCN2)ccc2c1COC2=O` came in with an IC50 in series [5] of 0.0088 µM.

Regarding `O=[N+]([O-])c1ccc2nc(COCc3nc4ccc([N+](=O)[O-])cc4[nH]3)[nH]c2c1`, the fraction unbound was 0.0161 in [6] and 0.0086 in series [13]. Moreover, the inhibition in series [7] is above 50%; in [8], 28%; in [11] it was 17%; in series [12], above 50%; in series [14], above 50%; in [16], above 50%. The Stability in series [9] turned out to be 80%; in series [10], 60%. The IC50 in series [2] was found to be 0.24 µM; in series [15], 6.2 µM.

In turn, `CC1=C(N2CCC3(CCN(CC(CO)c4ccc5c(ccc6nnnn65)c4)CC3)C2=O)COC1=O` (stereo not given) yielded an IC50 in series [2] of 0.018 µM. That is a double-digit nanomolar value.

`CCOc1cc(-n2cc(CNC[C@H](O)c3ccc4c(c3C)COC4=O)cn2)ccc1C#N` displayed a half-maximal inhibitory concentration (IC50) in series [5] of 0.0062 µM.

`CC1=C(N2CCC3(CCN(CCc4ccc5c(c4)Cn4nnnc4-5)CC3)C2=O)COC1=O` had an IC50 in [2] of 0.006 µM.

Values taken from ChEMBL document CHEMBL4321786, “Discovery of Small Molecule Renal Outer Medullary Potassium (ROMK) Channel Inhibitors: A Brief History of Medicinal Chemistry Approaches To Develop Novel Diuretic Therapeutics” (J Med Chem, 2019).
